# Assay results from publication PMC12399242 (Acta Pharmaceutica Sinica. B, 2025).
# “Also recorded” adds a separate entry of the source.
# Legend:
# HIV-1 Y181C = experiment: Antiviral activity against HIV-1 mutant Y181C in MT-4 cells; format: cell-based
# HIV-1 F227L + V106A = experiment: microbe, parasite or virus in culture; format: cell-based; details: Human immunodeficiency virus 1, MT4, read-out: EC50 F227L + V106A
# [1] = Human liver microsomal stability assay; format: in vitro ADME
# Description: A mixed system of human liver microsomes (0.5 mg/mL), MgCl2 (3 mmol/L), tested compound (1.0 μmol/L), and NADPH (1.0 mmol/L) in PBS (0.1 mol/L) was incubated at 37 °C. After 0, 5, 15, 30, 45, and 60 min, aliquots were sampled respectively and then terminated by adding methanol containing internal standard. After centrifugation using a Thermo Scientific Fresco 17 microcentrifuge (4 °C, 3800 rpm, 15 min), the supernatant was removed for LC‒MS/MS analysis.
# ICR mice = experiment: Acute toxicity assay in ICR mice; format: in vivo
# Description: A12 was suspended in PEG400/normal saline (80/20, v/v) to achieve a concentration of 100 mg/ml. Sixteen ICR mice (eight male/eight female, 18–22 g) were assigned into 4 groups randomly, and each group contained 4 male mice or 4 female mice (n = 4). […] Over the next two weeks, the mortality, body weight, and abnormal behaviors of these mice were monitored daily. All mice were dissected after blood collection on Day 14, and several vital organs were removed and then assessed for pathological damage by HE staining. The collected blood was submitted for blood biochemistry testing.
smiles,measurement,setting,value
"Cc1cc(-c2ccc(C#N)cc2)cc(C)c1Nc1nc(Nc2ccc(C#N)cc2)ncc1F [A12, 4′-((2-((4-Cyanophenyl)amino)-5-fluoropyrimidin-4-yl)amino)-3′,5′-dimethyl-[1,1′-biphenyl]-4-carbonitrile]",EC50,"HIV-1 Y181C; Human immunodeficiency virus 1, MT4, read-out: EC50 Y181C",7.1 ± 1.2 nM
same,fold higher efficacy against Y181C than toward RES056,HIV-1 Y181C; ratio of EC50 values,6.2 fold
same,EC50,HIV-1 F227L + V106A,157 ± 64 nM
same,half-life at 1 μmol/L,"[1]; human liver microsomes 0.5 mg/mL, 1.0 μmol/L compound",24.3 min
same,CLint scaled at 1 μmol/L,"[1]; human liver microsomes, scaled to liver",51.3 mL/min/kg
same,microsomal CLint at 1 μmol/L,"[1]; human, microsomes",57 µL/min/mg
same,"HE staining of vital organs (brain, heart, liver, spleen, lung, kidney)","ICR mice; 2 g/kg i.g., Day 14",does not show any discernible pathological alteration in vital organs; also recorded: no notable pathological alterations were detected in the vital organs
same,"blood biochemical parameters (ALT, AST, CREA, UREA, CKMB)","ICR mice; 2 g/kg i.g., fourteen days after administration, vs control",no significant differences in blood biochemical parameters
same,mortality,"ICR mice; male and female, single dose 2 g/kg i.g., 14 days",No instances of mortality were recorded
same,"acute toxicity, overall",ICR mice; single dose 2 g/kg,"excellent tolerance at doses reaching 2 g/kg, without any manifestation of immediate toxicity"
same,abnormal behavior,"ICR mice; single dose 2 g/kg i.g., 14 days",no noteworthy deviations in behavior were detected
same,body weight growth,"ICR mice; single dose 2 g/kg i.g., vs control group",growth patterns similar to that shown by the control group
